The record followed here is patent publication US20080070892A1, “TREATING PAIN, DIABETES, AND DISORDERS OF LIPID METABOLISM” (priority 2006, published 2008).

T1 sequence (O95180 whole entry): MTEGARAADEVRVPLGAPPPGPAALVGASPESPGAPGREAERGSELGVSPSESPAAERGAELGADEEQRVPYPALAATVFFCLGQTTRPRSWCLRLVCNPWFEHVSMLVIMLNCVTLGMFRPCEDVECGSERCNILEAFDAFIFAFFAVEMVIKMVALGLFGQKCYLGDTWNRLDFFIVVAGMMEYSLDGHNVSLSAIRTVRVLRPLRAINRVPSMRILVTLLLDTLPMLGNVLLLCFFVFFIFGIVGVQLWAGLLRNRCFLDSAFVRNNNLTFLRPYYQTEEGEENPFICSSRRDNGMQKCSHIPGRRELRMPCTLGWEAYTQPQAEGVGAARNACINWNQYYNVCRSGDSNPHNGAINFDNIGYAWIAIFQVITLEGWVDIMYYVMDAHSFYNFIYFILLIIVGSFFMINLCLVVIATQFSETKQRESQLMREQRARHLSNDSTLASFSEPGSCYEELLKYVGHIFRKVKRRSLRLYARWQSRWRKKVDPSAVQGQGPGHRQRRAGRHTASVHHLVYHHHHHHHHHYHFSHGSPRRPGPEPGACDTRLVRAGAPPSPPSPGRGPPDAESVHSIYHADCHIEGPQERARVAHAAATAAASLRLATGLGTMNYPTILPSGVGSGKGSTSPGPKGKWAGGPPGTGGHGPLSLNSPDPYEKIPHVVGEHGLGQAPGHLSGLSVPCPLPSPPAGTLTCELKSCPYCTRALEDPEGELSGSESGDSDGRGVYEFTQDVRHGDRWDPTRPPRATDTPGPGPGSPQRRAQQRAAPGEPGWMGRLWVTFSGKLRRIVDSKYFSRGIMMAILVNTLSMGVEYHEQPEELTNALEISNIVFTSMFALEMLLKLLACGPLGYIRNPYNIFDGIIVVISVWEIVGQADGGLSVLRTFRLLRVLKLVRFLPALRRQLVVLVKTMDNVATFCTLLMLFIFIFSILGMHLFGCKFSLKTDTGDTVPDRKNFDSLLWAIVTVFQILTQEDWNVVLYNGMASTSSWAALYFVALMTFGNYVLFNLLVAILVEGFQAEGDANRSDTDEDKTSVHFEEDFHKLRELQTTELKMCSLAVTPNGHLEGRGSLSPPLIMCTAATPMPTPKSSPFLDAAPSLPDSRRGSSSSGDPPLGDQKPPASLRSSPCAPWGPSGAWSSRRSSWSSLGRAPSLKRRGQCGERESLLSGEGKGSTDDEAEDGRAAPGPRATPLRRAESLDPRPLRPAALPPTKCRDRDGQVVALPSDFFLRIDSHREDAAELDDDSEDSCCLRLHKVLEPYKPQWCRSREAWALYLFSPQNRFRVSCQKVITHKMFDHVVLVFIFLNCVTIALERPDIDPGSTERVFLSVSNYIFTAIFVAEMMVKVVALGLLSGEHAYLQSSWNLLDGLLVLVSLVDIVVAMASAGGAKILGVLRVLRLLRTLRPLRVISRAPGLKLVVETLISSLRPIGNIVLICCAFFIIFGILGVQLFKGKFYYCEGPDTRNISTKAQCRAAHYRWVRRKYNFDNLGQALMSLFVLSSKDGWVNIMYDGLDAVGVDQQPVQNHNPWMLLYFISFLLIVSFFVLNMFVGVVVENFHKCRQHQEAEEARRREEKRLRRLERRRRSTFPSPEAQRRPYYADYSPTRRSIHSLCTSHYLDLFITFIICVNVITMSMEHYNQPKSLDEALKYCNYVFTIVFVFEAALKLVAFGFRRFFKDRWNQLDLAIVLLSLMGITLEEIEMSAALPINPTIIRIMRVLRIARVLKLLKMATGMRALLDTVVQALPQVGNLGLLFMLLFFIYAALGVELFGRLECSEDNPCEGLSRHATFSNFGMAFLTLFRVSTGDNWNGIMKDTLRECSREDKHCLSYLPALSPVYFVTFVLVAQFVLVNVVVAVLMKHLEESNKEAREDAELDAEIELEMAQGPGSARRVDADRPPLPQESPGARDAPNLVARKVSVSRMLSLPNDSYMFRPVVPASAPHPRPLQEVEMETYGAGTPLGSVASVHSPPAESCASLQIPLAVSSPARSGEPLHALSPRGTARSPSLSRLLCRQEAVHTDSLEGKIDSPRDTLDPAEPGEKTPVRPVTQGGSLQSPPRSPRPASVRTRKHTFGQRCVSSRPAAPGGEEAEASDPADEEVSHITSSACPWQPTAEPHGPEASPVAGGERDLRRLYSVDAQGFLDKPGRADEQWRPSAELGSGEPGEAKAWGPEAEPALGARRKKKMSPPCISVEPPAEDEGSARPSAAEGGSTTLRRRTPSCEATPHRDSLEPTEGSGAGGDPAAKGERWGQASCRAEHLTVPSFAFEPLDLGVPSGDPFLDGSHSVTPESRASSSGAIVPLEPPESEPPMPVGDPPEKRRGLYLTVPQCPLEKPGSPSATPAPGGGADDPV

The first experiment has as its target T1, human CaV3.2 (Homo sapiens, UniProt O95180).
T1 construct: expressed in transfected cells
The experiment can be described thus: IonWorks screen for hCaV3.2 (Cav3.2 Ionworks assay). Format: cell-based. The conditions noted are these: read-out: IW hCav3 2 IC50. From the text: Functional evaluation of voltage-gated ion channels was used to determine potency and/or single concentration efficacy of proprietary compounds. Two different methodologies were used to measure ion currents: the IonWorks HT (Molecular Devices, Sunnyvale, Calif.) a moderate throughput voltage clamp screening platform that utilizes 96-well compound plates and conventional whole cell patch clamp for lower throughput, higher fidelity determinations.
HEK cells were transiently transfected and then selected for stable heterologous expression of different channel proteins of interest. Calcium channel cell lines expressed a resting potassium current, human Kir2.1, and the pore forming α-subunit of voltage-gated calcium channels. In the case of CaV2.1 cells the auxiliary subunit, β2a, was also expressed. Calcium channel lines that were used to generate the data in this document expressed either human CaV3.2, rat CaV3.2 or human CaV2.1. The human heart sodium channel, hNaV1.5, was stably expressed in CHO cells. These cells were licensed from the University of Pennsylvania.
Cell lines were grown at 37° C. in humidified incubators, equilibrated with 95% air/5%0 CO2 CHO cells were grown in Ham's F-12 medium. HEK cells were grown in DMEM. All media were supplemented with 10% heat-inactivated fetal bovine serum, penicillin, streptomycin and appropriate selection antibiotics (zeocin, geneticin and/or hygromycin). Cells were passaged when 80% confluent or less.
IonWorks Screen for hCaV3.2
The extracellular buffer for experiments using this instrument contained the following (mM) (NaCl 125, HEPES 10, KCl 5.4, CaCl2 1.8, MgCl2 1.8, 0.2 BaCl2 pH 7.35). The IonWorks uses amphotericin to gain electrical access to the cell interior. The internal solution contained (mM concentrations): 130 K-gluconate, 20 KCl, 5 HEPES-KOH (pH 7.25), 2 CaCl2, 1 MgCl2. Amphotericin added at 5 mg in 65 ml when present (in 650 μl DMSO). All internal and external solutions for this experiment contain 1% DMSO. Cells were acutely trypsinized from a T-75 flask and resuspended in extracellular buffer at a density of 2×10^5 cells/ml.
Experiments were performed at room temperature. Transmembrane potential was held at −100 mV for 5 seconds prior to running the voltage protocol. During this time leak currents were measured during a step to −110 mV (200 milliseconds). T-type calcium currents were activated with a 250 millisecond step to −20 mV. This depolarization step was repeated for a total of 10 pulses with an interpulse interval of 1 second. Data were excluded if the following acceptance criteria were not met: total resistance for the pre-compound scan >65 MΩ, pre-compound current >250 pA, post compound total resistance >50 MΩ.
T-type currents were measured as the peak inward current minus the current at the end of the 250 msec step to −20 mV. After the recoding configuration was established there was a pre-compound measurement of current amplitude. Compound was added as a 3× solution containing 1% DMSO. After incubation with compound for 10 minutes currents were measured again. The current amplitude after compound addition was divided by the pre-compound current for pulse 10 to determine the fraction of current remaining after compound addition. For each compound, 8-point concentration-effect relationships were measured with ½ log serial dilutions.
For orientation: In patch-clamp work, channel activity is measured electrically.
For orientation: IC50 means the concentration at which inhibition is half-maximal. As for `COC(=O)[C@H](CC(C)C)NC(=O)N1CCC2(CC1)CN(CC(C)C)C2c1ccc(Cl)cc1` (stereo partly shown), the IC50 stood at 23 nM.

`CC[C@H](C)[C@H](NC(=O)N1CCC2(CC1)CN(CC(C)C)C2c1ccc(Cl)cc1)C(=O)OC` (stereo partly shown): the IC50 came to 26 nM. Still for that read-out and setting: the value for `COC(=O)[C@@H](NC(=O)N1CCC2(CC1)CN(CC(C)C)C2c1ccc(Cl)cc1)C(C)C` (stereo partly shown) was 32 nM; that for `COC(=O)[C@H](CC(C)C)NC(=O)N1CCC2(CC1)CN(C(C)C)C2c1ccc(Cl)cc1` (stereo partly shown) was 65 nM.

Turning to `CC[C@H](C)[C@H](NC(=O)N1CCC2(CC1)CN(c1ccc(F)cc1)C2c1ccc(Cl)cc1)C(=O)OC` (stereo partly shown), the IC50 is 77 nM. The same measure, in the same setting: the value for `O=C(C1CCCCC1)N1CCC2(CC1)CN(C(=O)C1(c3ccc(Cl)cc3)CCCC1)C2c1ccccc1` (stereo not shown) was 376 nM.

Take `CC(C)N1CC2(CCN(C(=O)Nc3cc(F)cc(F)c3)CC2)C1c1ccc(Cl)cc1` (single isomer, unassigned): the IC50 was 32 nM. For `CC(C)N1CC2(CCN(C(=O)Nc3ccc(F)cc3)CC2)C1c1ccc(Cl)cc1` (single isomer, unassigned), the IC50 was 69 nM.

Another experiment concerns the target T2, human-SP9215 (GPR119) (Homo sapiens, UniProt Q8TDV5).
T2 construct: expressed in transfected cells
T2 sequence (Q8TDV5 1-335): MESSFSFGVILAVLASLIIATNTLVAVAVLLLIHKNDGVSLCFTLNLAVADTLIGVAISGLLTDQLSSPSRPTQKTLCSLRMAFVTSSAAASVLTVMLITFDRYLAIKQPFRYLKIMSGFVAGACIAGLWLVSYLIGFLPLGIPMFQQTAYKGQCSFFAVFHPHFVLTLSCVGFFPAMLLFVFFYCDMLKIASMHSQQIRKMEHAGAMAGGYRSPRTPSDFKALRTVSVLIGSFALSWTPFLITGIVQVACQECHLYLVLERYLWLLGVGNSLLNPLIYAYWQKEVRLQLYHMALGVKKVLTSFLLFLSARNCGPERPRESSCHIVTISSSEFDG
The experiment can be described thus: GPR119 screening assay (LANCE cAMP). The format is cell-based. To be noted: HEK 293 cells stably transfected with human GPR119, read-out: GPR 119 cAMP IC50. How it is done: • +100 mg BSA (MP Biomedicals faction V, #103703)=0.1% • +500 ul 1M HEPES (Cellgro #25-060-CI)=5 mM • +75 ul RO-20 (Sigma B8279; 20 mM stock in DMSO stored in aliquots at −20 C)=15 uM • (made fresh daily) B84 (N-[4-(methylsulfonyl)phenyl]-5-nitro-6-[4-(phenylthio)-1-piperidinyl]-4-pyrimidinamine, see WO 2004/065380). A 10 mM stock solution of the test compound in DMSO was prepared, aliquoted and stored at −20 C. For Totals—Dilute 1:33.3 in DMSO then 1:50 in Stimulation Buffer=6 uM in 2% DMSO (=3 uM B84 and 1% DMSO final). For Dose Response Curve—3 ul stock+7 ul DMSO+490 ul Stim Buffer=60 uM in 2% DMSO (=30 uM B84 and 1% DMSO final). (made fresh daily). Cell Line: Human clone 3. HEK 293 cells stable transfected with human-SP9215 (GPR119)/pcDNA3.1 and also stable for pCRELuc, Stratagene. Cells are maintained in DMEM containing 10% FBS (invitrogen #02-4006Dk, lot #1272302, heat inactivated), 1×MEM, 1× Pen/Strep, 0.1 mg/ml Hygromycin 6, and […] G418. Cells are split 1:8 twice per week. cAMP Kit: LANCE™ cAMP 384 kit, Perkin Elmer #AD0263 Compound Dilutions: • Add DMSO to vials containing compounds to yield a 1 mg/ml solution. • 1. Dilute compounds to 60 μM in Stimulation buffer. Make ½ log dilutions into Stimulation buffer containing 2% DMSO using the epMotion robot. 10 point dose response curve 1 nM to 30 uM. • 2. Compounds are run in quadruplicate, 2 separate dilutions for each, sets 1 and 1a. Assay Procedure: • 1. The afternoon before the assay, replace the media in the flask of Human clone 3 cells with Optimem. (Gibco #11058-021) NOTE: cells should be in culture 6-8 days. • 2. Next morning, pipette the cells gently off the flask using HBSS (RT). • 3. Pellet the cells (1300 rpm, 7 min, RT) and resuspend in Stimulation Buffer at […] (=5-8,000 cell/6 ul). Add 1:100 dilution of Alexa Fluor 647-anti cAMP antibody (provided in the kit) directly to the cell suspension. • 4. Into white 384-well plates (Matrix) add 6 ul of 2× B84, cmpds or stim buffer for nsb. They all contain 2% DMSO (=1% DMSO final). • 5. Add 6 ul of the cell suspension to the wells. Incubate 30 minutes RT. • 6. For the std curve add 6 ul cAMP std solution diluted in Stim Buffer+2% DMSO according to kit directions (1000-3 nM). Add 6 ul of 1:100 anti-cAMP dilution in Stim Buffer to std wells. • 7. Make Detection Mix according to kit instructions and incubate 15 min RT. • 8. Add 12 ul Detection Mix to all the wells. Mix gently by tapping and incubate 2-3 hrs RT. • 9. Read on the Envision under the protocol “Lance/Delphia cAMP” • 10. Values (nM) for each sample are determined by extrapolation from the std curve. % Control, Fold and EC50 (Control=3 uM B84) are determined for each compound, averaging sets 1 and 1a. Results
In general terms: In TR-FRET formats the signal depends on donor and acceptor labels being close together.
For `O=C(c1ccc2c(c1)OCCCO2)N1CCC2(CC1)CN(c1ccc(F)cc1)C2c1ccc(Cl)cc1` (stereo not shown), the IC50 was 1640 nM.

For the compound `CC(C)CN1CC2(CCN(C(=O)c3ccc4c(c3)OCCCO4)CC2)C1c1ccccc1` (stereo not shown), the IC50 was determined as 1920 nM. On the same count and under the same terms, under `CC(C)CN1CC2(CCN(C(=O)c3ccc4c(c3)OCCCO4)CC2)C1c1ccc(Cl)cc1` (stereo not shown) stands 2620 nM; under `O=C(c1ccc2c(c1)OCCCO2)N1CCC2(CC1)CN(Cc1ccccc1Cl)C2c1ccc(Cl)cc1` (stereo not shown), 2770 nM. The same measure, in the same setting: under `O=C(c1ccc2[nH]cnc2c1)N1CCC2(CC1)CN(Cc1ccccc1Cl)C2c1ccccc1` (stereo not shown) stands 2980 nM.
